Results: patent publication US4735953A, “Pharmaceutical preparation for learning stimulation and memory improvement” (priority 1986, dated 1988)

What was measured:
[1] = tested on: rats; test: Teaching of rats in a T-shaped labyrinth with positive meal support; format: in vivo, rat
Text: In the second series of experiments the preparation according to the present invention was studied for the effect on teaching of rats in a T-shaped labyrinth in one compartment of which a feedbox with meal was provided. Rats deprived of meals during the day were placed into the starting compartment of the labyrinth and taught to find the feed-box in the proper compartment of the labyrinth. The response time, the number of unrealized reactions, the latent period, and the number of errors were noted.
Similar results were obtained in experiments in a T-shaped labyrinth with the use of a positive meal support.

[2] = tested on: rabbit's brain hemispheres; test: Amplitude of induced potential in brain hemispheres (acoustic irritation); format: in vivo; details: rabbits
Description: (§1) In the third series of experiments the effect of the preparation according to the present invention on the functional brain asymmetry was studied. The experiments were carried out on rabbits with electrodes implanted in the brain. The electrodes under nembutal narcosis (40 mg/kg) were implanted strictly symmetrically into the bearing zone of the temporal cortex of the right and left hemispheres on its lateral surface, whereas the indifferent electrode was secured to the nasal bones of a rabbit's skull. The acoustic irritation was applied through earphones. As the acoustic irritation a sound click caused by a square-shaped pulse from an electronic stimulator with a frequency of 0.1-0.2 Hz was used; the click intensity was adjusted within the range of from 5 to 80 Db. The amplification of the taken-off biopotentials was effected on an electroencephalograph; the induced potentials were obtained by means of an analyzer. 100 experiments on 20 animals were thus conducted; the interval between experiments on one animal was 7 days. The amplitude and form of the induced potential were determined. The asymmetry factor (Kas) was calculated by the formula: [formula] Ar --amplitude of the induced potential of the […] hemisphere, μV;
(§2) A1 --amplitude of the induced potential of the left hemisphere.
(§3) The test preparations were administered hypodermally in the form of 0.5-1.5% aqueous solutions 20 minutes before the beginning of the measurements.

[3] = tested on: cerebral cortex of rabbits; test: Asymmetry factor by induced potential in the hearing zone of the cerebral cortex; format: in vivo, rabbit
Description: as §1, §2, §3

[4] = tested on: learning ability of mice in a shuttle chamber; test: Learning ability of mice in a shuttle chamber; format: in vivo, mouse
[5] = tested on: mice; test: Acute toxicity, mice; format: in vivo, mouse; details: single intraperitoneal
Description: The preparation according to the present invention was also tested for acute and chronic toxicity.

[6] = tested on: rats; test: Chronic toxicity, rats; format: in vivo, rat; details: hypodermal, 3 months
Text: The chronic toxicity of the preparation was studied on three species of animals (rats, dogs, rabbits). In chronic tests on the above-mentioned animals the effect of a long-time hypodermal administration of the preparation according to the present invention on the general state and mass of animals, hemogram, cardio-vascular system, breathing central nervous system, functional state of kidneys, liver, thyroid gland was studied. […] The doses of the preparation employed in the experiments surpassed the required dose for a human being (per kilogram of bodymass) by 5-10 times.

[7] = Allergenic activity tests
Description: Allergenic activity tests were also carried out for the preparation according to the present invention.

[8] = Carcinogenic, mutagenic, teratogenic, embryotoxic effect
[9] = tested on: patients; test: Tolerability and side effects in patients; format: in vivo, human
[10] = Solubility; format: physicochemical
[11] = mice, hypodermally 1 mg/kg, 1st day
[12] = mice, hypodermally 1 mg/kg, 12 day (retention)
[13] = mice, hypodermally 3 mg/kg, 1st day
[14] = mice, hypodermally 3 mg/kg, 12 day (retention)
[15] = mice, hypodermally 10 mg/kg, 1st day
[16] = mice, hypodermally 10 mg/kg, 12 day (retention)
[17] = mice, per os 0.3 mg/kg, 1st day
[18] = mice, per os 0.3 mg/kg, 12 day (retention)
[19] = mice, per os 1 mg/kg, 12 day (retention)
[20] = mice, per os 3 mg/kg, 12 day (retention)

SMILES: Cl.Nc1c2c(nc3c1CCC3)CCCC2.O [preparation of the invention, 9-amino-2,3,5,6,7,8-hexahydro-1H-cyclopenta(b)quinoline monohydrate hydrochloride]
- number of response failures as compared to the initial level on the first day of teaching ([1]; rats, 5 mg/kg, by the fourth day of teaching, control 60-70%): 40%
- number of response failures (in words) ([1]; rats, 1, 5 and 10 mg/kg): reduced number of response failures
- amplitude of induced potentials (in words) [2]: increased greater in the left hemisphere
- Change of amplitude of induced potential, % of the control, left hemisphere ([2]; hypodermally 5 mg/kg): 270%
- Change of amplitude of induced potential, % of the control, right hemisphere ([2]; hypodermally 5 mg/kg): 200%
- Mean value of amplitude of induced potential, % ([2]; hypodermally 5 mg/kg): 235%
- asymmetry factor (in words) [3]: the asymmetry factor is also increased
- efficiency versus comparison preparations (in words) ([4]; mice): more efficient than pyracetam, 4-aminopyridine, physostigmine and calcium homopantothenate
- retention of the acquired knowledge (in words) ([4]; mice, 1, 3 and 10 mg/kg, after 24 hours): improves retention of the acquired knowledge
- learning process (in words) ([4]; mice, 1, 3 and 10 mg/kg, first day of teaching): facilitates the learning process
- % of avoidance reactions, group I [4, 11]: 22%
- % of avoidance reactions, group II [4, 11]: 40%
- % of avoidance reactions, group III [4, 11]: 52%
- % of avoidance reactions, group IV [4, 11]: 60%
- % of avoidance reactions, group V [4, 11]: 70%
- % of avoidance reactions, group VI [4, 11]: 74%
- % of avoidance reactions, group I [4, 12]: 70%
- % of avoidance reactions, group II [4, 12]: 88%
- % of avoidance reactions, group III [4, 12]: 90%
- % of avoidance reactions, group IV [4, 12]: 90%
- % of avoidance reactions, group V [4, 12]: 91%
- % of avoidance reactions, group VI [4, 12]: 90%
- % of avoidance reactions, group I [4, 13]: 32%
- % of avoidance reactions, group II [4, 13]: 43%
- % of avoidance reactions, group III [4, 13]: 50%
- % of avoidance reactions, group IV [4, 13]: 61%
- % of avoidance reactions, group V [4, 13]: 67%
- % of avoidance reactions, group VI [4, 13]: 65%
- % of avoidance reactions, group I [4, 14]: 66%
- % of avoidance reactions, group II [4, 14]: 90%
- % of avoidance reactions, group III [4, 14]: 88%
- % of avoidance reactions, group IV [4, 14]: 87%
- % of avoidance reactions, group V [4, 14]: 86%
- % of avoidance reactions, group VI [4, 14]: 86%
- % of avoidance reactions, group I [4, 15]: 28%
- % of avoidance reactions, group II [4, 15]: 20%
- % of avoidance reactions, group III [4, 15]: 25%
- % of avoidance reactions, group IV [4, 15]: 40%
- % of avoidance reactions, group V [4, 15]: 44%
- % of avoidance reactions, group VI [4, 15]: 46%
- % of avoidance reactions, group I [4, 16]: 61%
- % of avoidance reactions, group II [4, 16]: 75%
- % of avoidance reactions, group III [4, 16]: 78%
- % of avoidance reactions, group IV [4, 16]: 77%
- % of avoidance reactions, group V [4, 16]: 76%
- % of avoidance reactions, group VI [4, 16]: 81%
- % of avoidance reactions, group I [4, 17]: 27%
- % of avoidance reactions, group II [4, 17]: 38%
- % of avoidance reactions, group III [4, 17]: 59%
- % of avoidance reactions, group IV [4, 17]: 65%
- % of avoidance reactions, group V [4, 17]: 68%
- % of avoidance reactions, group VI [4, 17]: 72%
- % of avoidance reactions, group I [4, 18]: 79%
- % of avoidance reactions, group II [4, 18]: 84%
- % of avoidance reactions, group III [4, 18]: 82%
- % of avoidance reactions, group IV [4, 18]: 83%
- % of avoidance reactions, group V [4, 18]: 80%
- % of avoidance reactions, group VI [4, 18]: 82%
- % of avoidance reactions, group I ([4]; mice, per os 1 mg/kg, 1st day): 27%
- % of avoidance reactions, group II ([4]; mice, per os 1 mg/kg, 1st day): 43%
- % of avoidance reactions, group III ([4]; mice, per os 1 mg/kg, 1st day): 70%
- % of avoidance reactions, group IV ([4]; mice, per os 1 mg/kg, 1st day): 80%
- % of avoidance reactions, group V ([4]; mice, per os 1 mg/kg, 1st day): 80%
- % of avoidance reactions, group VI ([4]; mice, per os 1 mg/kg, 1st day): 82%
- % of avoidance reactions, group I [4, 19]: 80%
- % of avoidance reactions, group II [4, 19]: 90%
- % of avoidance reactions, group III [4, 19]: 88%
- % of avoidance reactions, group IV [4, 19]: 87%
- % of avoidance reactions, group V [4, 19]: 86%
- % of avoidance reactions, group VI [4, 19]: 90%
- % of avoidance reactions, group I ([4]; mice, per os 3 mg/kg, 1st day): 18%
- % of avoidance reactions, group II ([4]; mice, per os 3 mg/kg, 1st day): 27%
- % of avoidance reactions, group III ([4]; mice, per os 3 mg/kg, 1st day): 35%
- % of avoidance reactions, group IV ([4]; mice, per os 3 mg/kg, 1st day): 44%
- % of avoidance reactions, group V ([4]; mice, per os 3 mg/kg, 1st day): 51%
- % of avoidance reactions, group VI ([4]; mice, per os 3 mg/kg, 1st day): 50%
- % of avoidance reactions, group I [4, 20]: 51%
- % of avoidance reactions, group II [4, 20]: 76%
- % of avoidance reactions, group III [4, 20]: 75%
- % of avoidance reactions, group IV [4, 20]: 77%
- % of avoidance reactions, group V [4, 20]: 79%
- % of avoidance reactions, group VI [4, 20]: 80%
- memory stimulation, per os as compared to subcutaneous administration ([4]; mice, per os vs subcutaneous): the same or even better results of memory stimulation
- LD50 [5]: 44 mg/kg
- chronic toxicity [6]: no toxic effect
- allergenic effect [7]: no allergenic effect
- carcinogenic effect [8]: neither provides a carcinogenic, mutagenic, teratogenic or embryotoxic effect
- embryotoxic effect [8]: neither provides a carcinogenic, mutagenic, teratogenic or embryotoxic effect
- mutagenic effect [8]: neither provides a carcinogenic, mutagenic, teratogenic or embryotoxic effect
- teratogenic effect [8]: neither provides a carcinogenic, mutagenic, teratogenic or embryotoxic effect
- side effects, rare cases ([9]; eliminated by lowering dose or temporary suspension): reduction or elevation of arterial pressure and bradycardia
- tolerability ([9]; patients): well-bearable by patients
- side effects ([9]; signs of stimulation of m-cholinergic systems): nausea, diarrhea, less frequently--vomition
- solubility in 95% ethanol ([10]; 95% ethanol): less soluble in a 95% ethanol
- solubility in acetone ([10]; acetone): substantially insoluble
- solubility in chloroform ([10]; chloroform): substantially insoluble
- solubility in diluted solutions of acids ([10]; diluted solutions of acids): readily soluble in diluted solutions of acids
- solubility in ether ([10]; ether): substantially insoluble
- solubility in water ([10]; water): well soluble in water
